Measurements taken from US6727237B2, “Inhibitors of bacterial NAD synthetase” (priority 1998, dated 2004).
Where “and” joins values, the source holds several entries; their conditions need not be identical. Equal values may be shown once.

Experiments:
[1] = molecular target: T1, bacterial NAD synthetase enzyme (Bacillus subtilis, UniProt P08164); assay: biochemical; type: biochemical
T1 sequence (P08164 2-272 limits assumed): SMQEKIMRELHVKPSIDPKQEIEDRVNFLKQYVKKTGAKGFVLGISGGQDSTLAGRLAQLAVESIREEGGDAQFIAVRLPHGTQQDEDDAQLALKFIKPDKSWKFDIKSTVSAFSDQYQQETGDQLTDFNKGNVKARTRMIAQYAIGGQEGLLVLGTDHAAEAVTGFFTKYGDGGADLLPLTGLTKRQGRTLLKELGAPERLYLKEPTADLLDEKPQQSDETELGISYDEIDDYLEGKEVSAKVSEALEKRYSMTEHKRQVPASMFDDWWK

[2] = system: Staphylococcus epidermitis; assay: Bacterial growth inhibition screen in LB media (absorbance 595 nm), percent inhibition; details: for % Inhibition: S. epidermitis
[3] = compound at 0.2 mM (Table 312A)

SMILES | % Inhibition [1, 3] | % Inhibition ([2]; concentration screened 10 uM) | % Inhibition ([2]; concentration screened 100 uM) | also measured
c1ccc2[nH]c(CCCCC[n+]3cccc4ccccc43)cc2c1 [Compound 392] | 10.89% | 9.61% | – | –
O=C(OCCCCCCCc1cc2cc(Oc3ccccc3)ccc2[nH]1)c1ccncc1 [Compound 700] | 2.54% | 3.61% | – | –
CN(C)c1ccc(C(=O)OCCCCCCCCc2cc3cc(Oc4ccccc4)ccc3[nH]2)cc1 [Compound 620] | 19.03% | – | 12.69% | –
CCCCc1ccc2[nH]c(CCCCC[n+]3ccc4ccccc4c3)cc2c1 [Compound 530] | 20.52% | – | 27.36% | –
COC(=O)c1ccc2[nH]c(CCCCC[n+]3ccccc3)cc2c1 [Compound 380] | 10.09% | – | 97.64% | –
CCCCc1ccc2[nH]c(CCCCC[n+]3cccc4ccccc43)cc2c1 [Compound 422] | 16.23% | 9.82% | – | –
COC(=O)c1ccc2[nH]c(CCCCC[n+]3cccc4ccccc43)cc2c1 [Compound 488] | 17.65% | 2.72% | – | –
Cc1ccc2[nH]c(CCCCCCC[n+]3cccc4ccccc43)cc2c1 [Compound 406] | 10.96% | 6.41% | – | –
O=C(c1ccccc1)c1ccc2[nH]c(CCC[n+]3cccc4ccccc43)cc2c1 [Compound 462] | 3.84% | 3.13% | – | –
COc1ccc2[nH]c(CCCC[n+]3ccc4ccccc4c3)cc2c1 [Compound 589] | – | 29.35% | – | % Inhibition ([1]; compound at 0.1 mM (Table 314)): 24.98%
Fc1ccc2[nH]c(CCCCC[n+]3ccccc3)cc2c1 [Compound 344] | 4.58% | 8.08% | – | –
C[n+]1cccc(C(=O)OCCCCn2ccc3cc(OCc4ccccc4)ccc32)c1 [Compound 765] | – | – | – | inhibition at 100 µM [1]: 90%; IC50 ([1]; lead compounds (Table 318A), read-out: IC 50): 90 µM; inhibition of growth at 10 µM ([2]; Staphylococcus, read-out: % Inhibition, S. epidermitis, concentration screened 10 uM): 9.31%
FC(F)(F)c1ccc2[nH]c(CCCCC[n+]3ccc4ccccc4c3)cc2c1 [Compound 578] | 30.96% | – | 97.79% | –
CC(C)c1ccc2[nH]c(CCCCCC[n+]3ccccc3)cc2c1 [Compound 321] | – | – | 100.00% | % Inhibition ([1]; compound at 0.1 mM (Table 314)): 37.25%
c1ccc2c[n+](CCCCCCc3cc4ccccc4[nH]3)ccc2c1 [Compound 501] | 4.98% | – | 7.93% | –
c1ccc(-c2ccc3[nH]c(CCC[n+]4ccc5ccccc5c4)cc3c2)cc1 [Compound 540] | 20.20% | 1.60% | – | –
c1ccc(C(c2ccccc2)(c2ccccc2)c2ccc3[nH]c(CCCC[n+]4cccc5ccccc54)cc3c2)cc1 [Compound 445] | 5.43% | 11.21% | – | –
FC(F)(F)c1ccc2[nH]c(CCCCCC[n+]3ccc4ccccc4c3)cc2c1 [Compound 579] | 12.57% | 5.57% | – | –
FC(F)(F)c1ccc2cc(CCCCCC[n+]3ccc4ccccc4c3)[nH]c2c1 [Compound 507] | 26.18% | – | 15.86% | –

SMILES | % Inhibition [1, 3] | % Inhibition ([2]; concentration screened 10 uM) | % Inhibition ([2]; concentration screened 100 uM) | also measured
CC(C)c1ccc2[nH]c(CCCCCCCC[n+]3cccc4ccccc43)cc2c1 [Compound 431] | 10.77% | 22.28% | – | –
FC(F)(F)c1ccc2cc(CCCCC[n+]3ccc4ccccc4c3)[nH]c2c1 [Compound 506] | 21.74% | – | 98.64% | –
O=C(OCCCCc1cc2cc(C(F)(F)F)ccc2[nH]1)c1cccnc1 [Compound 654] | 2.11% | 25.20% | – | –
C[n+]1cccc(C(=O)OCCCCCCn2ccc3cc([N+](=O)[O-])ccc32)c1 [Compound 865] | 46.43% | 50.42% and 48.55% | 94.40% | –
c1ccc(Oc2ccc3[nH]c(CCCCC[n+]4ccc5ccccc5c4)cc3c2)cc1 [Compound 566] | 29.72% | – | 98.21% | –
c1ccc(Oc2ccc3[nH]c(CCCC[n+]4cccc5ccccc54)cc3c2)cc1 [Compound 457] | 3.31% | 4.67% | – | –
O=C(OCCCCCCCCc1cc2cc(Oc3ccccc3)ccc2[nH]1)c1cccnc1 [Compound 662] | 8.39% | 3.27% | – | –
Fc1ccc2[nH]c(CCCCC[n+]3cccc4ccccc43)cc2c1 [Compound 452] | 20.04% | 8.22% | – | –
FC(F)(F)c1ccc2cc(CCCC[n+]3cccc4ccccc43)[nH]c2c1 [Compound 397] | – | 5.85% | – | % Inhibition ([1]; compound at 0.1 mM (Table 314)): 4.51%
c1ccc(Oc2ccc3[nH]c(CCCCCCC[n+]4ccc5ccccc5c4)cc3c2)cc1 [Compound 568] | 18.95% | 3.10% | – | –
c1ccc(-c2ccc3[nH]c(CCCCCC[n+]4ccc5ccccc5c4)cc3c2)cc1 [Compound 543] | 28.06% | 5.99% | – | –
CC(C)c1ccc2[nH]c(CCCCOC(=O)c3ccc(N(C)C)cc3)cc2c1 [Compound 627] | 11.19% | – | 20.10% | –
CC(C)c1ccc2[nH]c(CCCCOC(=O)C(c3ccccc3)c3ccccc3)cc2c1 [Compound 663] | 15.43% | – | 44.28% | –
O=C(O)c1ccc2[nH]c(CCC[n+]3cccc4ccccc43)cc2c1 [Compound 492] | 2.59% | 11.00% | – | –
O=C(O)c1ccc2[nH]c(CCCCC[n+]3ccccc3)cc2c1 [Compound 386] | 28.75% | – | 96.36% | –
CN(C)c1cccc(C(=O)OCCCCc2cc3cc(C(F)(F)F)ccc3[nH]2)c1 [Compound 606] | – | – | 9.17% | –
Fc1cc(F)c2[nH]c(CCCCCCC[n+]3cccc4ccccc43)cc2c1 [Compound 412] | – | 7.73% | – | –
CC(C)c1ccc2[nH]c(CCCCCCCCOC(=O)C(c3ccccc3)c3ccccc3)cc2c1 [Compound 665] | – | – | 12.75% | –
CN(C)c1ccc(C(=O)OCCCCCCCCc2cc3cc(C(=O)c4ccccc4)ccc3[nH]2)cc1 [Compound 647] | – | – | 13.38% | –

SMILES | % Inhibition [1, 3] | % Inhibition ([2]; concentration screened 10 uM) | % Inhibition ([2]; concentration screened 100 uM) | also measured
O=C(OCCCCc1cc2cc(Oc3ccccc3)ccc2[nH]1)c1cccnc1 [Compound 684] | – | 10.83% | – | –
CC(=O)c1ccc2[nH]c(CCCCOC(=O)c3ccccc3-c3ccccc3)cc2c1 [Compound 639] | – | – | 7.41% | –
O=C(OCCCn1ccc2cc([N+](=O)[O-])ccc21)c1cccnc1 [Compound 855] | – | 49.58% | – | –
COC(=O)c1ccc2c(ccn2CCC[n+]2cccc(C(=O)OC)c2)c1 [Compound 171] | – | 15.33% | – | –
CC(=O)c1ccc2[nH]c(CCCCCCCOC(=O)c3ccncc3)cc2c1 [Compound 706] | – | 6.68% | – | –
O=C(OCCCCCCCCc1cc2cc(C(=O)c3ccccc3)ccc2[nH]1)c1cccnc1 [Compound 680] | – | 22.48% | – | –
CN(C)c1cccc(C(=O)OCCCCCCCc2cc3cc(Oc4ccccc4)ccc3[nH]2)c1 [Compound 616] | – | 5.59% | – | –
O=C(OCCCCc1cc2cc(Oc3ccccc3)ccc2[nH]1)C(c1ccccc1)c1ccccc1 [Compound 657] | – | – | 37.12% | –
O=C([O-])c1ccc[n+](CCCn2c(C(=O)O)cc3ccccc32)c1 [Compound 191] | – | 46.32% | – | –
COc1ccc2c(ccn2CCCCOC(=O)c2ccc([N+](C)(C)C)cc2)c1 [Compound 780] | – | 4.78% | – | –
CC(C)c1ccc2[nH]c(CCCCCCCOC(=O)c3ccncc3)cc2c1 [Compound 703] | – | 4.29% | – | –
CC(C)c1ccc2[nH]c(CCCCOC(=O)c3cccc(N(C)C)c3)cc2c1 [Compound 624] | – | – | 19.16% | –
O=C(OCCCCCCCc1cc2cc(C(=O)c3ccccc3)ccc2[nH]1)c1ccncc1 [Compound 709] | – | 12.94% | – | –
C[N+](C)(C)c1cccc(C(=O)OCCCCn2ccc3cc(OCc4ccccc4)ccc32)c1 [Compound 805] | – | 50.87% | – | –
CN(C)c1ccc(C(=O)OCCCCc2cc3cc(Oc4ccccc4)ccc3[nH]2)cc1 [Compound 618] | – | – | 11.06% | –
CC(=O)c1ccc2[nH]c(CCCCCCCCOC(=O)c3ccccc3-c3ccccc3)cc2c1 [Compound 641] | – | – | 8.10% | –
C[n+]1cccc(C(=O)OCCCCCCCCCc2cc3cc([N+](=O)[O-])ccc3[nH]2)c1 [Compound 281] | – | 84.23% | – | –
c1ccc(Oc2ccc3[nH]c(CCCCCC[n+]4cccc5ccccc54)cc3c2)cc1 [Compound 459] | – | 16.09% | – | –
